What follows are molecules tested on Anopheles gambiae (assay: Attraction tests in outdoor screenhouses: mosquitoes caught in MM-X or BG Sentinel traps baited with plant-based volatile organic compounds). Settings: single compounds suspended in mineral oil; 300-400 released.
Type: in vivo
Protocol: Attraction tests were conducted in two sizes of outdoor screenhouses (˜5.5×7 m and 11×7 m, each>3 m high) at the Mbita research station (Odhiambo Campus, Kenya) of the International Centre of Insect Physiology & Ecology (ICIPE). The screenhouses provided a semi-natural physical environment that allowed experimental control over mosquito sample size and recovery of marked and/or released mosquitoes. It was noted that fluctuations of weather conditions would cause variations in flight behavior from night to night, affecting attraction to volatile organic compounds. The walls and ceiling were lined with netting to reduce interference from ants and spiders and to prevent mosquitoes from aggregating in the vaulted ceiling. The floor was a bed of sand, dampened daily. On the floor at each corner of the screenhouse, dampened pots served as resting harborages, which the mosquitoes typically entered at dawn. When local potted plants were included in the environment, they were spaced throughout the floor.
Tested mosquitoes were the Mbita strain of Anopheles gambiae, colonized locally about 14 years ago, but with infusions of field material in some subsequent years, to maintain genetic diversity. Adults emerging each night from daily collections of pupae were fed water only and were tested in the screenhouses the following night. At this age, both sexes still have adequate deposits of somatic energy from larval feeding but will die during the following 1.5 days without nutrients. Before sunset, the volatile organic compounds baits were installed in mosquito traps, their fans were turned on, and the mosquitoes were released from a small cage prepared for that purpose.
Attraction was measured as the number of mosquitoes caught in MM-X or BG Sentinel traps baited with plant-based volatile organic compounds. The volatile organic compounds were prepared as individual compounds suspended in mineral oil, which controlled release rate according to dosage (concentration) while also retarding release rate of all compounds. Each compound was released separately from other compounds when more than one was released simultaneously. The oil-volatile organic compound suspensions were applied to two different types of release substrates: long nylon fabric strips in the exhaust tube of the trap, and short cotton wicks suspended in a wire basket beneath the exhaust tube. […] As an example of the tested volatile organic compounds, the release profiles of hexanol and phenylacetaldehyde (suspended in hexane or mineral oil, applied to nylon sock or cotton wick) as measured in a MM-X trap is shown in FIGS. 19a and 19b, respectively. The release profiles of hexanol, linalool oxide, ocimene, pinene, and 6-methyl-5-hepten-2-one are similar to phenylacetaldehyde.
The layout of traps was designed to maximize discrimination among traps releasing different plant-based volatile organic compounds or releasing none (the blank control). The small screenhouses contained 2 traps, positioned diagonally. The large screenhouses contained 4 traps. In both sizes, the traps were near the corners, but not so close to the netting walls as to interfere with mosquito flight around the traps or the free flow of the odor plume from the traps. For replicates of each test, the positions of the traps were rotated, to minimize positional bias for one of these variables: a particular compound, particular dose of a compound, or particular combination of several compounds or their proportions. In early tests, a blank trap was always included. But after establishing that a blank trap never caught more than 10 mosquitoes, out of 300-400 released, blank traps were usually replaced by one with a bait using volatile organic compounds. The number trapped out of the total number released, expressed as a percentage, was seldom calculated, because of the large and variable numbers of mosquitoes unaccounted for by trap and aspirator recapture. […]
With `CCCCCCO` [Hexanol, hexanol] the “attraction score (number of mosquitoes caught in baited trap), in words” value (from here on “attraction score”) was “good scores even at low dosages, with little or no improvement at higher doses”.
For `CCOC(=O)Cc1ccccc1` [ethylphenylacetate], the “attraction score” value was “in higher dosages (and therefore higher release rates) gave higher attraction scores”.
In the case of `C=CC(C)(O)CCC=C(C)C` (stereo not drawn) [linalool], the “attraction score” value is reported as “in higher dosages (and therefore higher release rates) gave higher attraction scores”.
With `C=CC(C)=CCC=C(C)C` [ocimene] the “attraction score” value was “in higher dosages (and therefore higher release rates) gave higher attraction scores”.
In the case of `O=CCc1ccccc1` [phenylacetaldehyde], the “attraction score” value is reported as “weak or mediocre”.
For caryophyllene, the “attraction score” value was “in higher dosages (and therefore higher release rates) gave higher attraction scores”.

Source: patent US20160007585A1, “INSECT CONTROL DEVICE” (Clarke Mosquito Control Products, Inc., priority 2014, published 2016)
